From patent US20220193076A1, “METHODS OF TREATING BREAST CANCER WITH TUCATINIB” (Seagen Inc., priority 2019, published 2022)

Key:
[1] = tested on: CYP3A4; experiment: In vitro enzyme activity / mRNA induction in human hepatocytes; type: in vitro ADME
[2] = target: T1, breast cancer resistance protein (BCRP) (Homo sapiens, UniProt Q9UNQ0); experiment: In vitro inhibition of BCRP activity; type: in vitro ADME
T1 sequence (Q9UNQ0 1-655): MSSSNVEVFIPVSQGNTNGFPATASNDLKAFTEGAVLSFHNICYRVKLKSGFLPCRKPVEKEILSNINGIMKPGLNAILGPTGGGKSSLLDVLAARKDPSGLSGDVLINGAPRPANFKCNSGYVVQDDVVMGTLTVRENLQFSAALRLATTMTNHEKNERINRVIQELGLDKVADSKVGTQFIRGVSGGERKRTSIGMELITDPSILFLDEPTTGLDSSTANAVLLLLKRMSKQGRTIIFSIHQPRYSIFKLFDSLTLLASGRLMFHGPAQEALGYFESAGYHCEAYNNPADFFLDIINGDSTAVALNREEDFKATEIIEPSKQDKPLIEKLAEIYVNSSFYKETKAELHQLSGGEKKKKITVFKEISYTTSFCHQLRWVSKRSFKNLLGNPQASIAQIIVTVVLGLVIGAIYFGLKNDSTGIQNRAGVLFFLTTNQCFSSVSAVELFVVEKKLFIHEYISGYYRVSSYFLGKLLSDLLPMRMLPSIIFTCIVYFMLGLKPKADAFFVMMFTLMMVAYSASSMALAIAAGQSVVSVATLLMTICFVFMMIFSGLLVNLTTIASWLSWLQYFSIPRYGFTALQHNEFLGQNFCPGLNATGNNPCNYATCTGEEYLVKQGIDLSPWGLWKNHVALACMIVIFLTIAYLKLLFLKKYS

[3] = tested on: CYP1A2; experiment: In vitro enzyme activity / mRNA induction in human hepatocytes; type: in vitro ADME
[4] = target: T2, OAT2 (Homo sapiens, UniProt Q9Y694); experiment: Inhibition of OAT2 mediated transport of creatinine in transfected MDCK-II cells (Example 3); type: in vitro ADME; details: MDCK-II, read-out: Maximum inhibition of OAT2 mediated transport of creatinine
T2 construct: expressed in transfected cells; host or cells: MDCK-II
T2 sequence (Q9Y694 1-548): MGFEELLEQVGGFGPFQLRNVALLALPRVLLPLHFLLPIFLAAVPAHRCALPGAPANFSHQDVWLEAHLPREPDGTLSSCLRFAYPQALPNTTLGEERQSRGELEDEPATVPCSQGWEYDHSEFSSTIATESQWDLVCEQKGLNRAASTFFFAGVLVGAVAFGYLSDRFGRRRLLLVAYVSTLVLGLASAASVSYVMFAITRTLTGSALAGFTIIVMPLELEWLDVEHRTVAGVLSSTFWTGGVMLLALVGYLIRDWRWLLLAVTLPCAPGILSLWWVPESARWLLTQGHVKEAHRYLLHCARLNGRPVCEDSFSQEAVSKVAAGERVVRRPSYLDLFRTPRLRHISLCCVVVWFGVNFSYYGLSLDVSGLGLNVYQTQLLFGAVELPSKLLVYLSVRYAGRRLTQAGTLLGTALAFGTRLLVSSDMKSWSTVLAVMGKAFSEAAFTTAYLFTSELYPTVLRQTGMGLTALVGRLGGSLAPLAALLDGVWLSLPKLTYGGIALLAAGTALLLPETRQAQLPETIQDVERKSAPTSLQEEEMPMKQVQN
Procedure: Substrate dependent inhibition is common among transporters including MATE1 and MATE2-K. In this study, creatinine was used as the probe substrate to assess the inhibitory potency of Tucatinib and ONT-993. OAT2, OCT2, OCT3, MATE1, and MATE2-K are the renal transporters identified to transport creatinine. Tucatinib and its metabolite ONT-993 were tested as potential inhibitors of OAT2, OCT2, MATE1, and MATE2-K mediated transport using creatinine as a probe substrate.
(§1) For this study, MDCK-II were maintained in DMEM with low glucose and 10% FBS. Cells were seeded at 60K±10K cells/well on 96-well, transwell membrane plates approximately 24 hours before transfection. Transport assays were carried out approximately 48 hours after transfection. Cells were transfected and treated to express the transporter of interest or treated with a control vector. The transport of creatinine was determined by radiometric detection.
(§2) Net transporter mediated uptake of the substrate by each transporter was calculated as follows: Net Transporter Mediated Substrate Uptake (pmol/min/cm^2)=(Cellular accumulation in the presence of the transporter)−(Mean cellular accumulation in the absence of the transporter.
Percent inhibition was calculated as follows: Percent inhibition=100−(100*(transporter mediated uptake)with inhibition/(transporter mediated uptake)without inhibition) […]

[5] = Example 2 Part D: single- and multiple-dose PK of tucatinib and ONT-993; type: in vivo, human; details: tucatinib 300 mg BID, Day 10 vs Day 4
Source text: Other noncompartmental PK parameters may be reported.

[6] = target: T3, MATE1 (Homo sapiens, UniProt Q96FL8); experiment: Inhibition of MATE1 mediated transport of creatinine in transfected MDCK-II cells (Example 3); type: in vitro ADME; set-up: expressed in transfected cells; host or cells: MDCK-II; details: probe substrate creatinine
T3 sequence (Q96FL8 1-570): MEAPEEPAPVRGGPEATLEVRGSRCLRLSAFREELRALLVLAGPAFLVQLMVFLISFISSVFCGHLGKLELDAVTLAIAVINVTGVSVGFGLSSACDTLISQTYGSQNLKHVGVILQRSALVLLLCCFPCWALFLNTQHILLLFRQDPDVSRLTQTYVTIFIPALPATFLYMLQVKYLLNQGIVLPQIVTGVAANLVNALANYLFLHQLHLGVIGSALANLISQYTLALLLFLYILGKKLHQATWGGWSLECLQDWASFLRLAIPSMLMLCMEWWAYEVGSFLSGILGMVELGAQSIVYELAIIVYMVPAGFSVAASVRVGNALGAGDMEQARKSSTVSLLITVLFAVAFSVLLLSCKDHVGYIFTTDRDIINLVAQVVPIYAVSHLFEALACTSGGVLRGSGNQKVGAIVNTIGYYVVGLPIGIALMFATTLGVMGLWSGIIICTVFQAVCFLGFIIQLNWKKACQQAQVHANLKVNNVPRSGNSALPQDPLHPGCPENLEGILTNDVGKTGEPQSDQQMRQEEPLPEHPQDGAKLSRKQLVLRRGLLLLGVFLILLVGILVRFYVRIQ
Procedure: OAT2, OCT2, OCT3, MATE1, and MATE2-K are the renal transporters identified to transport creatinine.
as §1, §2
Percent inhibition was calculated as follows: Percent inhibition=100−(100*(transporter mediated uptake)with inhibition/(transporter mediated uptake)without inhibition)
The following equation was used to determine IC50 values of uptake assays: […]

What does the source list for `Cc1cc(Nc2ncnc3ccc(NC4=NC(C)(C)CO4)cc23)ccc1Oc1ccn2ncnc2c1` [tucatinib]?
Induction of in vitro enzyme activity or messenger ribonucleic acid, CYP3A4 [1]: did not induce; IC50 [2]: 8.98 µM; Induction of in vitro enzyme activity or messenger ribonucleic acid, CYP1A2 [3]: did not induce; inhibition at 10 µM [4]: 14.7%; Rac (accumulation ratio) after multiple dosing [5]: 1.85; IC50 [6]: 0.0855 ± 0.0175 µM
